# Measurements published in patent US20100331348A1, “TROPANE DERIVATIVES USEFUL AS PESTICIDES” (SYNGENTA CROP PROTECTION, INC., priority 2007, published 2010).
# Where two headings read alike, the source gives them in different places.
# Experiments:
# Aedes aegypti = Aedes aegypti (Yellow fever mosquito) larvae test; assay type: in vivo; conditions: 48 h
# [1] = system: Puccinia recondita f.sp. tritici; assay: Puccinia recondita f.sp. tritici (wheat brown rust) leaf disk assay; assay type: in vivo; conditions: foliar, 216 h, preventive, nine days after inoculation, read-out: control of fungal infection, Puccinia recondita f.sp. tritici
# [2] = system: Erysiphe graminis f.sp. tritici; assay: Erysiphe graminis f.sp. tritici (wheat powdery mildew) leaf disk assay; assay type: in vivo; conditions: Blumeria graminis, foliar, 96 h, preventive, four days after inoculation, read-out: control of fungal infection, Erysiphe graminis fsp. tritici
# Pyricularia oryzae = assay: whole plant or invertebrate; assay type: in vivo; conditions: foliar, 96 h
# Plutella xylostella = Plutella xylostella (Diamond back moth) artificial diet test; conditions: 120 h, read-out: control of Plutella xylostella
# [3] = read-out: control of fungal infection, Pyricularia oryzae (at least 60% list)
# [4] = read-out: control of fungal infection, Pyricularia oryzae (at least 80% list)
SMILES,pest or weed control at 2 ppm (Aedes aegypti) [%],pest or weed control at 200 ppm [1] [%],pest or weed control at 200 ppm [2] [%],pest or weed control at 200 ppm (Pyricularia oryzae; [3]) [%],pest or weed control at 200 ppm (Plutella xylostella) [%],pest or weed control at 200 ppm (Pyricularia oryzae; [4]) [%]
Cc1ccc(OC2C[C@H]3CC[C@@H](C2)N3c2ncnc3sccc23)cc1 (some centres unmarked) [Example 1.7],≥ 80,≥ 80,–,–,–,–
Fc1ccc(F)c(OC2C[C@H]3CC[C@@H](C2)N3c2ncnc3sccc23)c1 (some centres unmarked) [Example 2.25],–,–,≥ 80,≥ 60,–,–
c1nc(N2[C@@H]3CC[C@H]2CC(Oc2ccc4c(c2)OCO4)C3)c2ccsc2n1 (some centres unmarked) [Example 2.29],≥ 80,–,≥ 80,–,–,–
FC(F)(F)c1cccc(OC2C[C@H]3CC[C@@H](C2)N3c2ncnc3sccc23)n1 (some centres unmarked) [Example 2.60],–,≥ 80,≥ 80,≥ 60,–,–
FC(F)(F)c1ccnc(OC2C[C@H]3CC[C@@H](C2)N3c2ncnc3ccccc23)c1 (some centres unmarked) [Example 2.84],–,≥ 80,≥ 80,≥ 60,–,–
CCc1ncnc(N2[C@@H]3CC[C@H]2CC(Oc2ccc4c(c2)OCO4)C3)c1Cl (some centres unmarked) [Example 2.138],≥ 80,–,–,–,–,–
CCc1ncnc(N2[C@@H]3CC[C@H]2CC(Oc2ccc(C(C)C)cc2)C3)c1Cl (some centres unmarked) [Example 2.143],–,–,–,–,≥ 80,–
CCc1ncnc(N2[C@@H]3CC[C@H]2CC(Oc2ccc(C(C)(C)C)cc2)C3)c1Cl (some centres unmarked) [Example 2.147],–,–,–,–,≥ 80,–
CCc1ncnc(N2[C@@H]3CC[C@H]2CC(Oc2c(F)c(F)c(F)c(F)c2F)C3)c1Cl (some centres unmarked) [Example 2.150],≥ 80,–,–,–,–,–
Cn1cc(C(=O)N2[C@@H]3CC[C@H]2CC(Oc2cc(C(F)(F)F)ccn2)C3)c(C(F)(F)F)c1 (some centres unmarked) [Example 2.219],–,–,–,≥ 60,–,–
Cn1cc(C(=O)N2[C@@H]3CC[C@H]2CC(Oc2cccc(C(F)(F)F)n2)C3)c(C(F)(F)F)c1 (some centres unmarked) [Example 2.221],–,–,–,≥ 60,–,–
CCc1ncnc(N2C3CCC2CC(=CC(=O)Nc2ccc(Cl)cc2)C3)c1Cl [Example 3.11],–,≥ 80,–,≥ 60,–,–
COc1cc(OCC=C2CC3CCC(C2)N3c2ncnc3sccc23)ccc1Cl [Example 3.24],–,≥ 80,–,–,–,≥ 80
COC(=O)C=C1CC2CCC(C1)N2c1ncnc2sccc12 [Example 3.28],≥ 80,≥ 80,–,–,–,≥ 80
CCCNC(=O)C=C1CC2CCC(C1)N2c1ncnc2sccc12 [Example 3.31],–,≥ 80,–,–,–,≥ 80
CCCCNC1C[C@H]2CC[C@@H](C1)N2c1ncnc2sccc12 (some centres unmarked) [Example 4.9],–,–,–,–,–,≥ 80
c1ccc(CNC2C[C@H]3CC[C@@H](C2)N3c2ncnc3sccc23)cc1 (some centres unmarked) [Example 4.10],–,–,–,–,–,≥ 80
CCc1ncnc(N2C3CCC2CC(=NOCc2cccc(OC)c2)C3)c1Cl [Example 5.15],≥ 80,≥ 80,≥ 80,–,–,–
CCc1ncnc(N2C3CCC2CC(=NOCc2cccnc2)C3)c1Cl [Example 5.25],≥ 80,–,≥ 80,–,–,–
CCc1ncnc(N2C3CCC2CC(=NOCc2ccccc2C#N)C3)c1Cl [Example 5.38],≥ 80,≥ 80,≥ 80,≥ 60,–,–
CCc1ncnc(N2C3CCC2CC(=NOCc2cc(F)cc(F)c2)C3)c1Cl [Example 5.57],–,≥ 80,≥ 80,–,–,≥ 80

SMILES,pest or weed control at 2 ppm (Aedes aegypti) [%],pest or weed control at 200 ppm [1] [%],pest or weed control at 200 ppm [2] [%],pest or weed control at 200 ppm (Pyricularia oryzae; [3]) [%],pest or weed control at 200 ppm (Plutella xylostella) [%],pest or weed control at 200 ppm (Pyricularia oryzae; [4]) [%]
CCc1ncnc(N2C3CCC2CC(=NOCc2c(F)cccc2Cl)C3)c1Cl [Example 5.90],≥ 80,≥ 80,≥ 80,–,–,–
CCc1ncnc(N2C3CCC2CC(=NOCc2ccc(-c4nnn(CC)n4)cc2)C3)c1Cl [Example 5.112],≥ 80,≥ 80,≥ 80,–,–,–
CCc1ncnc(C(C)c2ncnc(N3C4CCC3CC(=NOc3ncc(C(F)(F)F)cc3Cl)C4)c2Cl)c1Cl (centres unmarked) [Example 5.124],–,–,–,≥ 60,–,–
c1cc(CON=C2CC3CCC(C2)N3c2ncnc3sccc23)ccn1 [Example 5.131],≥ 80,–,≥ 80,–,–,–
Clc1cccc(Cl)c1CON=C1CC2CCC(C1)N2c1ncnc2sccc12 [Example 5.144],≥ 80,≥ 80,≥ 80,–,–,≥ 80
Cc1cc(C)cc(CON=C2CC3CCC(C2)N3c2ncnc3sccc23)c1 [Example 5.156],–,≥ 80,≥ 80,≥ 60,–,–
c1ccc(Oc2cccc(CON=C3CC4CCC(C3)N4c3ncnc4sccc34)c2)cc1 [Example 5.173],–,≥ 80,≥ 80,≥ 60,–,≥ 80
CCCCOCON=C1CC2CCC(C1)N2c1ncnc2sccc12 [Example 5.178],–,≥ 80,≥ 80,≥ 60,–,–
Fc1cccc(CON=C2CC3CCC(C2)N3c2ncnc3sccc23)c1 [Example 5.183],≥ 80,≥ 80,≥ 80,–,–,–
FC(F)Oc1ccccc1CON=C1CC2CCC(C1)N2c1ncnc2sccc12 [Example 5.202],≥ 80,≥ 80,≥ 80,≥ 60,–,–
Cc1ccc(C)c(CON=C2CC3CCC(C2)N3c2ncnc3sccc23)c1 [Example 5.203],–,≥ 80,≥ 80,≥ 60,–,–
FC(F)(F)Oc1cccc(CON=C2CC3CCC(C2)N3c2ncnc3sccc23)c1 [Example 5.212],–,≥ 80,≥ 80,≥ 60,–,–
Fc1ccc(C(F)(F)F)c(CON=C2CC3CCC(C2)N3c2ncnc3sccc23)c1 [Example 5.234],–,≥ 80,≥ 80,–,–,≥ 80
Cc1nc(ON=C2CC3CCC(C2)N3c2ncnc3sccc23)cc(-c2ccccc2)n1 [Example 5.236],–,–,–,≥ 60,–,–
FC(F)(F)Sc1cccc(CON=C2CC3CCC(C2)N3c2ncnc3sccc23)c1 [Example 5.239],–,≥ 80,≥ 80,–,–,≥ 80
Cc1nn(C)c2nccc(N3C4CCC3CC(=NOCc3ccc(Cl)cc3)C4)c12 [Example 5.256],–,≥ 80,≥ 80,≥ 60,–,–
OC1(Cc2ccccc2)CC2CCC(C1)N2c1ncnc2sccc12 (centres unmarked) [Example 7.14],–,–,–,–,–,≥ 80
CC(C)(C)c1csc(CC2CC3CCC(C2)N3c2ncnc3sccc23)n1 (centres unmarked) [Example 7.17],–,–,–,≥ 60,–,≥ 80
FC(F)(F)C(F)(F)c1csc(CC2CC3CCC(C2)N3c2ncnc3sccc23)n1 (centres unmarked) [Example 7.20],–,≥ 80,–,≥ 60,–,–
CCc1ncnc(N2C3CCC2CC(CC(=O)Nc2ccc(Cl)cc2)C3)c1Cl (centres unmarked) [Example 7.22],–,≥ 80,–,≥ 60,–,≥ 80
